Measured values published in ChEMBL document CHEMBL1201862, “PubChem BioAssay data set” (2004).
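These data come from cells grown in 96-well plates and exposed to compound for 48 hours at five concentrations. The concentration for 50% growth inhibition is given as GI50.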 Active and inactive are the calls of the source. Rule as the data show it: active = GI50 up to about 1.1 µM and inactive = higher.

Tests used:
Assay in all cases: NCI anticancer screen, dose series, 48 h
[1] = system: A498
[2] = system: ACHN
[3] = system: CCRF-CEM
[4] = system: DU-145
[5] = system: HCC 2998
[6] = system: Hs-578T
[7] = system: K562
[8] = system: MDA-N
[9] = system: Malme-3M
[10] = system: NCI-H226
[11] = system: NCI-H460
[12] = system: NCI/ADR-RES
[13] = system: SK-MEL-2
[14] = system: SNB-19
[15] = system: TK-10
[16] = system: UACC-62
[17] = system: UO-31
[18] = system: HL-60

Row | SMILES | GI50 [1] | GI50 [2] | GI50 [3] | GI50 [4] | GI50 [5] | GI50 [6] | GI50 [7] | GI50 [8] | GI50 [9] | GI50 [10] | GI50 [11] | GI50 [12] | GI50 [13] | GI50 [14] | GI50 [15] | GI50 [16] | GI50 [17] | GI50 [18]
1 | O=C(O)c1ccccc1C(=O)OCC1CCCN2CCCCC12 (centres undefined) | > 100 µM (inactive) | > 100 µM (inactive) | > 100 µM (inactive) | > 100 µM (inactive) | > 100 µM (inactive) | > 100 µM (inactive) | > 100 µM (inactive) | > 100 µM (inactive) | > 100 µM (inactive) | > 100 µM (inactive) | > 100 µM (inactive) | > 100 µM (inactive) | > 100 µM (inactive) | > 100 µM (inactive) | > 100 µM (inactive) | > 100 µM (inactive) | > 100 µM (inactive) | –
2 | C/C=C/OC1C(C2COC(C)(C)O2)OC2OC(C)(C)OC21 (centres undefined) | > 100 µM (inactive) | > 100 µM (inactive) | > 100 µM (inactive) | > 100 µM (inactive) | > 100 µM (inactive) | > 100 µM (inactive) | > 100 µM (inactive) | > 100 µM (inactive) | > 100 µM (inactive) | – | > 100 µM (inactive) | > 100 µM (inactive) | > 100 µM (inactive) | > 100 µM (inactive) | > 100 µM (inactive) | – | > 100 µM (inactive) | > 100 µM (inactive)
3 | COc1ccc2c(c1)CCc1c-2n(CCN(C)C)c2ccc(OC)cc12 | 17.6 µM (inactive) | 14.2 µM (inactive) | 2.38 µM (inactive) | 33.9 µM (inactive) | 3.09 µM (inactive) | 21.4 µM (inactive) | 3.77 µM (inactive) | 5.46 µM (inactive) | 19.7 µM (inactive) | 3.03 µM (inactive) | 30.4 µM (inactive) | 18.5 µM (inactive) | 18.5 µM (inactive) | 11.6 µM (inactive) | 24.2 µM (inactive) | 9.42 µM (inactive) | 14 µM (inactive) | –
4 | CC(=O)N1C=Cc2c(c(C)c3c([nH]c4ccccc43)c2C)C1 | 14.8 µM (inactive) | 1.09 µM (active) | 12.8 µM (inactive) | 11.5 µM (inactive) | – | 3.62 µM (inactive) | > 100 µM (inactive) | 8.75 µM (inactive) | 7.53 µM (inactive) | 10.3 µM (inactive) | 1.23 µM (inactive) | 2.5 µM (inactive) | 12.3 µM (inactive) | 10.2 µM (inactive) | 10.8 µM (inactive) | – | – | 23.1 µM (inactive)
5 | CCCCc1ccc(Nc2nc(Cl)c3[nH]cnc3n2)cc1 | 21.4 µM (inactive) | 20.8 µM (inactive) | 39.1 µM (inactive) | 17.9 µM (inactive) | 25.5 µM (inactive) | 24.5 µM (inactive) | 32.7 µM (inactive) | 21.9 µM (inactive) | 19.3 µM (inactive) | 39.6 µM (inactive) | – | 19.3 µM (inactive) | 14.6 µM (inactive) | 19.1 µM (inactive) | 22.8 µM (inactive) | 16.4 µM (inactive) | 23.8 µM (inactive) | 42.1 µM (inactive)
6 | CC(C)C(Br)C(=O)NCC(=O)O (centres undefined) | > 100 µM (inactive) | > 100 µM (inactive) | > 100 µM (inactive) | > 100 µM (inactive) | – | > 100 µM (inactive) | > 100 µM (inactive) | > 100 µM (inactive) | > 100 µM (inactive) | > 100 µM (inactive) | > 100 µM (inactive) | > 100 µM (inactive) | > 100 µM (inactive) | > 100 µM (inactive) | > 100 µM (inactive) | > 100 µM (inactive) | > 100 µM (inactive) | 0.245 µM (active)
7 | CC1=NOC(=O)/C1=C/c1ccc2c(c1)OCO2 | 26.3 µM (inactive) | 19.1 µM (inactive) | 20.7 µM (inactive) | 25.1 µM (inactive) | 28.9 µM (inactive) | 39.5 µM (inactive) | 55.3 µM (inactive) | 32.3 µM (inactive) | 43.6 µM (inactive) | 21.6 µM (inactive) | 35.1 µM (inactive) | 39.5 µM (inactive) | 19.6 µM (inactive) | 30.7 µM (inactive) | 39.2 µM (inactive) | 21.5 µM (inactive) | 21.1 µM (inactive) | –
8 | COc1cc(C)c2c(c1C=O)Oc1c(c(C)c(O)c3c1C(O)OC3=O)OC2=O (centres undefined) [STICTIC ACID] | 31.2 µM (inactive) | 22 µM (inactive) | > 10 µM (inactive) | 87.5 µM (inactive) | 20.2 µM (inactive) | 36.8 µM (inactive) | – | 17.5 µM (inactive) | 20.7 µM (inactive) | 37.6 µM (inactive) | – | 37.2 µM (inactive) | > 10 µM (inactive) | 14.5 µM (inactive) | > 100 µM (inactive) | 25.6 µM (inactive) | 29.1 µM (inactive) | 23.3 µM (inactive)
9 | COC(=O)NC1=NNC(=O)c2ccccc2N1 | > 100 µM (inactive) | > 100 µM (inactive) | > 100 µM (inactive) | > 100 µM (inactive) | > 100 µM (inactive) | > 100 µM (inactive) | > 100 µM (inactive) | > 100 µM (inactive) | – | > 100 µM (inactive) | > 100 µM (inactive) | > 100 µM (inactive) | > 100 µM (inactive) | > 100 µM (inactive) | > 100 µM (inactive) | > 100 µM (inactive) | > 100 µM (inactive) | > 100 µM (inactive)
